Laboratory results published in ChEMBL document CHEMBL3784999, “Investigation of 4-amino-5-alkynylpyrimidine-2(1H)-ones as anti-mycobacterial agents” (Bioorg Med Chem, 2016).
≈ marks a conversion by molar mass, not a printed value. Calls of active or inactive are those of the source. The rule behind the calls is not given here.

Assays:
[1] = test system: Mycobacterium tuberculosis; experiment: Antimycobacterial activity against Mycobacterium tuberculosis H37Ra assessed as inhibition of mycobacterial replication after 6 days by microplate Alamar blue assay; format: functional; conditions: 144 h
[2] = test system: Mycobacterium tuberculosis; experiment: Antimycobacterial activity against Mycobacterium tuberculosis H37Ra assessed as inhibition of mycobacterial replication at 200 ug/ml after 6 days by microplate Alamar blue assay; format: functional; conditions: 144 h
[3] = test system: Mycobacterium tuberculosis; experiment: Antimycobacterial activity against Mycobacterium tuberculosis H37Ra assessed as inhibition of mycobacterial replication at 100 ug/ml after 6 days by microplate Alamar blue assay; format: functional; conditions: 144 h
[4] = test system: Mycobacterium tuberculosis; experiment: Antimycobacterial activity against Mycobacterium tuberculosis H37Ra assessed as inhibition of mycobacterial replication at 50 ug/ml after 6 days by microplate Alamar blue assay; format: functional; conditions: 144 h
[5] = test system: Mycobacterium tuberculosis; experiment: Antimycobacterial activity against Mycobacterium tuberculosis H37Ra assessed as inhibition of mycobacterial replication at 25 ug/ml after 6 days by microplate Alamar blue assay; format: functional; conditions: 144 h
[6] = test system: Mycobacterium tuberculosis; experiment: Antimycobacterial activity against Mycobacterium tuberculosis H37Ra assessed as inhibition of mycobacterial replication at 6.25 ug/ml after 6 days by microplate Alamar blue assay in presence of isoniazid; format: functional; conditions: 144 h
[7] = test system: Mycobacterium tuberculosis; experiment: Antimycobacterial activity against Mycobacterium tuberculosis H37Ra assessed as inhibition of mycobacterial replication at 6.25 ug/ml after 6 days by microplate Alamar blue assay in absence of isoniazid; format: functional, organism-based
[8] = test system: Mycobacterium tuberculosis; experiment: Ratio MIC90 for Mycobacterium tuberculosis H37Ra in presence of isoniazid to MIC90 for Mycobacterium tuberculosis H37Ra in absence of isoniazid; format: functional
[9] = test system: Mycobacterium tuberculosis; experiment: Antimycobacterial activity against Mycobacterium tuberculosis H37Ra infected in BALB/c mouse assessed as reduction of bacterial load in lung at 25 mg/kg, po administered for 2 weeks started on day 4 post bacterial infection measured 3 days post last dose; format: functional
[10] = test system: Mycobacterium tuberculosis; experiment: Antimycobacterial activity against Mycobacterium tuberculosis H37Ra infected in BALB/c mouse assessed as reduction of bacterial load in liver at 25 mg/kg, po administered for 2 weeks started on day 4 post bacterial infection measured 3 days post last dose; format: functional
[11] = test system: Mycobacterium tuberculosis; experiment: Antimycobacterial activity against Mycobacterium tuberculosis H37Ra infected in BALB/c mouse assessed as reduction of bacterial load in spleen at 25 mg/kg, po administered for 2 weeks started on day 4 post bacterial infection measured 3 days post last dose; format: functional
[12] = test system: Mycobacterium tuberculosis; experiment: Antimycobacterial activity against Mycobacterium tuberculosis H37Ra infected in BALB/c mouse assessed as reduction of bacterial load in lung at 12.5 mg/kg, po administered for 2 weeks started on day 4 post bacterial infection measured 3 days post last dose co-treated with 1 mg/kg, po isoniazid; format: functional
[13] = test system: Mycobacterium tuberculosis; experiment: Antimycobacterial activity against Mycobacterium tuberculosis H37Ra infected in BALB/c mouse assessed as reduction of bacterial load in liver at 12.5 mg/kg, po administered for 2 weeks started on day 4 post bacterial infection measured 3 days post last dose co-treated with 1 mg/kg, po isoniazid; format: functional
[14] = test system: Mycobacterium tuberculosis; experiment: Antimycobacterial activity against Mycobacterium tuberculosis H37Ra infected in BALB/c mouse assessed as reduction of bacterial load in spleen at 12.5 mg/kg, po administered for 2 weeks started on day 4 post bacterial infection measured 3 days post last dose co-treated with 1 mg/kg, po isoniazid; format: functional
[15] = test system: Mycobacterium tuberculosis; experiment: Antimycobacterial activity against Mycobacterium tuberculosis H37Ra infected in BALB/c mouse assessed as reduction of bacterial load in lung at 6.25 to 6.25 mg/kg, po administered for 2 weeks started on day 4 post bacterial infection measured 3 days post last dose; format: functional, organism-based
[16] = test system: Mycobacterium tuberculosis; experiment: Antimycobacterial activity against Mycobacterium tuberculosis H37Ra infected in BALB/c mouse assessed as reduction of bacterial load in liver at 6.25 to 6.25 mg/kg, po administered for 2 weeks started on day 4 post bacterial infection measured 3 days post last dose; format: functional, organism-based
[17] = test system: Mycobacterium tuberculosis; experiment: Antimycobacterial activity against Mycobacterium tuberculosis H37Ra infected in BALB/c mouse assessed as reduction of bacterial load in spleen at 6.25 to 6.25 mg/kg, po administered for 2 weeks started on day 4 post bacterial infection measured 3 days post last dose; format: functional, organism-based
[18] = test system: Mycobacterium tuberculosis; experiment: Antimycobacterial activity against Mycobacterium tuberculosis H37Ra infected in BALB/c mouse assessed as reduction in bacterial activity in lung at 6.25 mg/kg, po administered for 2 weeks started on day 4 post bacterial infection measured 3 days post last dose co-treated with 1 mg/kg, po isoniazid; format: functional
[19] = test system: Mycobacterium tuberculosis; experiment: Antimycobacterial activity against Mycobacterium tuberculosis H37Ra infected in BALB/c mouse assessed as reduction in bacterial activity in spleen at 6.25 mg/kg, po administered for 2 weeks started on day 4 post bacterial infection measured 3 days post last dose co-treated with 1 mg/kg, po isoniazid; format: functional
Mus musculus [20] = experiment: Toxicity in BALB/c mouse infected with Mycobacterium tuberculosis H37Ra assessed as weight loss at 6.25 to 25 mg/kg, po administered for 2 weeks started on day 4 post bacterial infection; format: organism-based; conditions: in vivo, 336 h
Mus musculus [21] = experiment: Toxicity in BALB/c mouse infected with Mycobacterium tuberculosis H37Ra assessed as behavioral changes at 6.25 to 25 mg/kg, po administered for 2 weeks started on day 4 post bacterial infection; format: organism-based; conditions: in vivo, 336 h
Mus musculus [22] = experiment: Toxicity in BALB/c mouse infected with Mycobacterium tuberculosis H37Ra assessed as change in urea level in serum at 6.25 to 25 mg/kg, po administered for 2 weeks started on day 4 post bacterial infection; format: organism-based; conditions: in vivo, 336 h
Mus musculus [23] = experiment: Toxicity in BALB/c mouse infected with Mycobacterium tuberculosis H37Ra assessed as change in creatinine level in serum at 6.25 to 25 mg/kg, po administered for 2 weeks started on day 4 post bacterial infection; format: organism-based; conditions: in vivo, 336 h
Mus musculus [24] = experiment: Toxicity in BALB/c mouse infected with Mycobacterium tuberculosis H37Ra assessed as change in phosphate level in serum at 6.25 to 25 mg/kg, po administered for 2 weeks started on day 4 post bacterial infection; format: organism-based; conditions: in vivo, 336 h
Mus musculus [25] = experiment: Toxicity in BALB/c mouse infected with Mycobacterium tuberculosis H37Ra assessed as change in calcium level in serum at 6.25 to 25 mg/kg, po administered for 2 weeks started on day 4 post bacterial infection; format: organism-based; conditions: in vivo, 336 h
Mus musculus [26] = experiment: Toxicity in BALB/c mouse infected with Mycobacterium tuberculosis H37Ra assessed as change in cholesterol level in serum at 6.25 to 25 mg/kg, po administered for 2 weeks started on day 4 post bacterial infection; format: organism-based; conditions: in vivo, 336 h
Mus musculus [27] = experiment: Toxicity in BALB/c mouse infected with Mycobacterium tuberculosis H37Ra assessed as change in alkaline phosphatase level in serum at 6.25 to 25 mg/kg, po administered for 2 weeks started on day 4 post bacterial infection; format: organism-based; conditions: in vivo, 336 h
Mus musculus [28] = experiment: Toxicity in BALB/c mouse infected with Mycobacterium tuberculosis H37Ra assessed as change in amylase level in serum at 6.25 to 25 mg/kg, po administered for 2 weeks started on day 4 post bacterial infection; format: organism-based; conditions: in vivo, 336 h
Mus musculus [29] = experiment: Toxicity in BALB/c mouse infected with Mycobacterium tuberculosis H37Ra at 6.25 to 25 mg/kg, po administered for 2 weeks started on day 4 post bacterial infection by necroscopy; format: organism-based; conditions: in vivo, 336 h
Mus musculus [30] = experiment: Toxicity in BALB/c mouse infected with Mycobacterium tuberculosis H37Ra at 6.25 to 25 mg/kg, po administered for 2 weeks started on day 4 post bacterial infection by necroscopy in presence of isoniazid; format: organism-based; conditions: in vivo, 336 h
Mus musculus [31] = experiment: Toxicity in BALB/c mouse infected with Mycobacterium tuberculosis H37Ra assessed as weight loss at 6.25 to 25 mg/kg, po administered for 2 weeks started on day 4 post bacterial infection in presence of isoniazid; format: organism-based; conditions: in vivo, 336 h
Mus musculus [32] = experiment: Toxicity in BALB/c mouse infected with Mycobacterium tuberculosis H37Ra assessed as behavioral changes at 6.25 to 25 mg/kg, po administered for 2 weeks started on day 4 post bacterial infection in presence of isoniazid; format: organism-based; conditions: in vivo, 336 h
Mus musculus [33] = experiment: Toxicity in BALB/c mouse infected with Mycobacterium tuberculosis H37Ra assessed as change in urea level in serum at 6.25 to 25 mg/kg, po administered for 2 weeks started on day 4 post bacterial infection in presence of isoniazid; format: organism-based; conditions: in vivo, 336 h
Mus musculus [34] = experiment: Toxicity in BALB/c mouse infected with Mycobacterium tuberculosis H37Ra assessed as change in creatinine level in serum at 6.25 to 25 mg/kg, po administered for 2 weeks started on day 4 post bacterial infection in presence of isoniazid; format: organism-based; conditions: in vivo, 336 h
Mus musculus [35] = experiment: Toxicity in BALB/c mouse infected with Mycobacterium tuberculosis H37Ra assessed as change in phosphate level in serum at 6.25 to 25 mg/kg, po administered for 2 weeks started on day 4 post bacterial infection in presence of isoniazid; format: organism-based; conditions: in vivo, 336 h
Mus musculus [36] = experiment: Toxicity in BALB/c mouse infected with Mycobacterium tuberculosis H37Ra assessed as change in calcium level in serum at 6.25 to 25 mg/kg, po administered for 2 weeks started on day 4 post bacterial infection in presence of isoniazid; format: organism-based; conditions: in vivo, 336 h
Mus musculus [37] = experiment: Toxicity in BALB/c mouse infected with Mycobacterium tuberculosis H37Ra assessed as change in cholesterol level in serum at 6.25 to 25 mg/kg, po administered for 2 weeks started on day 4 post bacterial infection in presence of isoniazid; format: organism-based; conditions: in vivo, 336 h
Mus musculus [38] = experiment: Toxicity in BALB/c mouse infected with Mycobacterium tuberculosis H37Ra assessed as change in alkaline phosphatase level in serum at 6.25 to 25 mg/kg, po administered for 2 weeks started on day 4 post bacterial infection in presence of isoniazid; format: organism-based; conditions: in vivo, 336 h
Mus musculus [39] = experiment: Toxicity in BALB/c mouse infected with Mycobacterium tuberculosis H37Ra assessed as change in amylase level in serum at 6.25 to 25 mg/kg, po administered for 2 weeks started on day 4 post bacterial infection in presence of isoniazid; format: organism-based; conditions: in vivo, 336 h
[40] = Cytotoxicity against African green monkey Vero cells assessed as cell viability after 3 days by XTT assay; format: cell-based; conditions: chlorocebus sabaeus
Mus musculus [41] = experiment: Toxicity in BALB/c mouse infected with Mycobacterium tuberculosis H37Ra assessed as gross necroscopy changes at 6.25 to 25 mg/kg, po administered for 2 weeks started on day 4 post bacterial infection; format: organism-based; conditions: in vivo, 336 h
[42] = test system: Mycobacterium tuberculosis; experiment: Antimycobacterial activity against Mycobacterium tuberculosis H37Ra assessed as inhibition of mycobacterial replication at 0.05 ug/ml after 6 days by microplate Alamar blue assay in absence of isoniazid; format: functional; conditions: 144 h
[43] = test system: Mycobacterium tuberculosis; experiment: Antimycobacterial activity against Mycobacterium tuberculosis H37Ra infected in BALB/c mouse assessed as reduction of bacterial load in lung at 1 mg/kg, po administered for 2 weeks started on day 4 post bacterial infection measured 3 days post last dose; format: functional, organism-based
[44] = test system: Mycobacterium tuberculosis; experiment: Antimycobacterial activity against Mycobacterium tuberculosis H37Ra infected in BALB/c mouse assessed as reduction of bacterial load in liver at 1 mg/kg, po administered for 2 weeks started on day 4 post bacterial infection measured 3 days post last dose; format: functional, organism-based
[45] = test system: Mycobacterium tuberculosis; experiment: Antimycobacterial activity against Mycobacterium tuberculosis H37Ra infected in BALB/c mouse assessed as reduction of bacterial load in spleen at 1 mg/kg, po administered for 2 weeks started on day 4 post bacterial infection measured 3 days post last dose; format: functional, organism-based

## CCCCCC#Cc1c[nH]c(=O)nc1N
[1]
  MIC50: 12.5 µg/mL (≈ 60.9 µM)
[2]
  inhibition at 200 µg/mL: 100%
[3]
  inhibition at 100 µg/mL: 100%
[4]
  inhibition at 50 µg/mL: 100%
[5]
  inhibition at 25 µg/mL: 90%
[6]
  inhibition at 6.25 µg/mL: 100%
[7]
  inhibition: inactive
[8]
  fractional inhibitory concentration index (FICI): 0.37
[9]
  inhibition in vivo at 25 mg/kg: 79%
[10]
  inhibition in vivo at 25 mg/kg: 50%
[11]
  inhibition in vivo at 25 mg/kg: 51%
[12]
  inhibition (INH): 95%
[13]
  inhibition (INH): 96%
[14]
  inhibition (INH): 70%
[15]
  Activity: inactive
[16]
  Activity: inactive
[17]
  Activity: inactive
[18]
  inhibition (INH): 70%
[19]
  inhibition (INH): 40%
Mus musculus [20]
  Activity: Non-toxic
Mus musculus [21]
  Activity: Non-toxic
Mus musculus [22]
  Activity: Non-toxic
Mus musculus [23]
  Activity: Non-toxic
Mus musculus [24]
  Activity: Non-toxic
Mus musculus [25]
  Activity: Non-toxic
Mus musculus [26]
  Activity: Non-toxic
Mus musculus [27]
  Activity: Non-toxic
Mus musculus [28]
  Activity: Non-toxic
Mus musculus [29]
  Activity: Non-toxic
Mus musculus [30]
  Activity: Non-toxic
Mus musculus [31]
  Activity: Non-toxic
Mus musculus [32]
  Activity: Non-toxic
Mus musculus [33]
  Activity: Non-toxic
Mus musculus [34]
  Activity: Non-toxic
Mus musculus [35]
  Activity: Non-toxic
Mus musculus [36]
  Activity: Non-toxic
Mus musculus [37]
  Activity: Non-toxic
Mus musculus [38]
  Activity: Non-toxic
Mus musculus [39]
  Activity: Non-toxic
[40]
  CC50 at 72 h: > 200 µg/mL
Mus musculus [41]
  Activity: Non-toxic

## NNC(=O)c1ccncc1 [ISONIAZID]
[42]
  inhibition at 0.05 µg/mL: 10%
[43]
  Activity: inactive
[44]
  Activity: inactive
[45]
  Activity: inactive
